The text below walks through data of patent publication US12447153B2, “HER2 mutation inhibitors” (Array BioPharma Inc., priority 2021, dated 2025).

Data set [1] concerns the target ErbB2 WT (Homo sapiens (Human), UniProt P04626). The experiment in a line: ErbB Enzyme Assay (HTRF KinEASE-TK), Assay 2. The format is biochemical. In general terms: TR-FRET usually uses a lanthanide donor and a delayed reading to cut background.
The target of data set [2] is EGFR (Homo sapiens (Human), UniProt P00533). The experiment in a line: ErbB Enzyme Assay (HTRF KinEASE-TK), Assay 3. The data set is classed as biochemical.
EGFR, sequence (P00533 25-1210): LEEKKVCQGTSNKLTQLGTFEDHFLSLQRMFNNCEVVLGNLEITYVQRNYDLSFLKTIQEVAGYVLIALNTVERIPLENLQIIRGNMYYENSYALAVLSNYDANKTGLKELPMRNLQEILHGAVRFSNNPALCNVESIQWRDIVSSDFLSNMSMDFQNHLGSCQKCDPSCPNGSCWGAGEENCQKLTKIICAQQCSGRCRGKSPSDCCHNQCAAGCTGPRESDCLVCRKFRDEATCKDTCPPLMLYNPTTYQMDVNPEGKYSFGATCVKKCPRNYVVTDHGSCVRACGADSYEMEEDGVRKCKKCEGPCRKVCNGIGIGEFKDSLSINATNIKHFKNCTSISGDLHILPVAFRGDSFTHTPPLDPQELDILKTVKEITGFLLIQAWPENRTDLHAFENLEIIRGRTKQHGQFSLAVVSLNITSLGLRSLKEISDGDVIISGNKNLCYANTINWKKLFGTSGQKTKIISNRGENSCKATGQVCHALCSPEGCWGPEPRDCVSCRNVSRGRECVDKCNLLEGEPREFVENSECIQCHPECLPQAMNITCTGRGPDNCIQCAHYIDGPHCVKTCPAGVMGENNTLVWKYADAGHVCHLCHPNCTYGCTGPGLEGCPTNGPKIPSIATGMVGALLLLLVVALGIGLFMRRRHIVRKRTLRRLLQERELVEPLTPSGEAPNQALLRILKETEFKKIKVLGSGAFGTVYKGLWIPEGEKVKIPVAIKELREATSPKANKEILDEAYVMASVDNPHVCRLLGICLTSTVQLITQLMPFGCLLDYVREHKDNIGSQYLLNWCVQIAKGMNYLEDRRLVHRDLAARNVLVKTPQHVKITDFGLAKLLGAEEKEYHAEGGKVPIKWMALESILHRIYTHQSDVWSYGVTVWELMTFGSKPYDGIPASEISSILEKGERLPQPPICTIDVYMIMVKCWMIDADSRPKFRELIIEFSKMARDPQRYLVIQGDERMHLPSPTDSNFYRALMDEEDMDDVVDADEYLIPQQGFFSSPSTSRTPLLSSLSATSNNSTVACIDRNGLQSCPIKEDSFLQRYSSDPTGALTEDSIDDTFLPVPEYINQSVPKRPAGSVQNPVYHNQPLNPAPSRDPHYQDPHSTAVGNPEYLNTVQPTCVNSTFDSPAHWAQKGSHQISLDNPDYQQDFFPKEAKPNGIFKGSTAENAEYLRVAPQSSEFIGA
Data set [3] addresses ErbB2 with Exon 20 YVMA insertion (HER2-YVMA) (Homo sapiens (Human), UniProt P04626, INS775YVMA). The experiment in a line: Cellular Phosphorylation Assay, Assay 4 (constitutive ErbB2 phosphorylation, NIH 3T3 cells). The data set is classed as cell-based.
The target in data set [4] is EGFR wild type (EGFR WT) (Homo sapiens (Human), UniProt P00533). The experiment in a line: Cellular Phosphorylation Assay, Assay 5 (EGF-stimulated EGFR phosphorylation, NIH 3T3 cells). The format is cell-based.
EGFR wild type (EGFR WT), sequence (P00533 25-1210): as above
Data set [5] addresses BCRP (Homo sapiens (Human), UniProt Q9UNQ0). As to the kind of experiment: BCRP MDCKII efflux assay (Assay 7). The data set is classed as in vitro ADME. The settings on record: dog; efflux ratio Papp(B-A)/Papp(A-B), BCRP MDCKII cells; read-out: Assay 7 Pe Ratio. The method, then:
Assay conditions included with and without the BCRP-specific inhibitor, KO143, at a concentration of 0.3 μM to ascertain the contribution of BCRP to the efflux value of the test compound.
Final organic concentration in the assay was 1%.

Data set [6] has as its target MDR1 (P-gp) (Homo sapiens (Human), UniProt P08183). As to the kind of experiment: in vitro. The note with it: pig, LLC-PK1.
Protocol: Both LLC-PK1 and MDR1 transfected LLC-PK1 cells were cultured and plated according to manufacturer's recommendations with the exception that the passage media contained only 2% fetal bovine serum so as to extend passage time out to seven days.
Both positive and negative controls were used to assess functionality of P-gp or BCRP efflux in the assays. Stock solutions for assay controls and the test article were prepared in DMSO for final test concentrations of 10 μM and 1 μM, respectively. Final organic concentration in the assay was 1%. All dosing solutions contained 10 μM lucifer yellow to monitor LLC PK1 or MDCKII cell monolayer integrity.
For the apical to basolateral determination (A to B), 75 μL of the test article in transport buffer were added to the apical side of the individual transwells and 250 μL of basolateral media, without compound or lucifer yellow, were added to each well. For the basolateral to apical determination (B to A), 250 μL of test article in transport buffer were added to each well and 75 μL transport buffer, without compound or lucifer yellow, were added to each transwell. All tests were performed in triplicate, and each compound was tested for both apical to basolateral and basolateral to apical transport. The plates were incubated for 2 hours on a Lab-Line Instruments Titer Orbital Shaker (VWR, West Chester, PA) at 50 rpm and 37° C. with 5% CO2. All culture plates were removed from the incubator, 50 μL of media were removed from the apical and basolateral portion of each well, and added to 150 μL of 1 μM labetalol in 2:1 acetonitrile (ACN): H2O, v/v.
The plates were read using a Molecular Devices (Sunnyvale, CA) Gemini Fluorometer to evaluate the lucifer yellow concentrations at excitation/emission wavelengths of 425/535 nm. These values were accepted when found to be below 2% for apical to basolateral and 5% basolateral to apical flux across the MDR1-transfected LLC-PK1 or BCRP-transfected MDCKII cell monolayers. The plates were sealed, and the contents of each well analyzed by LC MS/MS. The compound concentrations were determined from the ratio of the peak areas of the compound to the internal standard (labetalol) in comparison to the dosing solution.
The LC-MS/MS system was comprised of an HTS-PAL autosampler (Leap Technologies, Carrboro, NC), an HP1200 HPLC (Agilent, Palo Alto, CA), and a MDS Sciex 4000 Q Trap system (Applied Biosystems, Foster City, CA). […] The total run time, including re-equilibration, for a single injection was 1.2 minutes. Mass spectrometric detection of the analytes was accomplished using the ion spray positive mode. Analyte responses were measured by multiple reaction monitoring (MRM) of transitions unique to each compound (the protonated precursor ion and selected product ions for each test article and m/z 329 to m/z 162 for labetalol, the internal standard).
An efflux ratio is calculated from the mean apical to basolateral (A-B) Papp data and basolateral to apical (B-A) Papp data: Efflux ratio=Papp(B−A)/Papp(A−B)
The mark [7] stands for this setting: EGF-stimulated EGFR WT phosphorylation.

SMILES strings stand for the structures.

MDR1 (P-gp), sequence (P08183 whole entry): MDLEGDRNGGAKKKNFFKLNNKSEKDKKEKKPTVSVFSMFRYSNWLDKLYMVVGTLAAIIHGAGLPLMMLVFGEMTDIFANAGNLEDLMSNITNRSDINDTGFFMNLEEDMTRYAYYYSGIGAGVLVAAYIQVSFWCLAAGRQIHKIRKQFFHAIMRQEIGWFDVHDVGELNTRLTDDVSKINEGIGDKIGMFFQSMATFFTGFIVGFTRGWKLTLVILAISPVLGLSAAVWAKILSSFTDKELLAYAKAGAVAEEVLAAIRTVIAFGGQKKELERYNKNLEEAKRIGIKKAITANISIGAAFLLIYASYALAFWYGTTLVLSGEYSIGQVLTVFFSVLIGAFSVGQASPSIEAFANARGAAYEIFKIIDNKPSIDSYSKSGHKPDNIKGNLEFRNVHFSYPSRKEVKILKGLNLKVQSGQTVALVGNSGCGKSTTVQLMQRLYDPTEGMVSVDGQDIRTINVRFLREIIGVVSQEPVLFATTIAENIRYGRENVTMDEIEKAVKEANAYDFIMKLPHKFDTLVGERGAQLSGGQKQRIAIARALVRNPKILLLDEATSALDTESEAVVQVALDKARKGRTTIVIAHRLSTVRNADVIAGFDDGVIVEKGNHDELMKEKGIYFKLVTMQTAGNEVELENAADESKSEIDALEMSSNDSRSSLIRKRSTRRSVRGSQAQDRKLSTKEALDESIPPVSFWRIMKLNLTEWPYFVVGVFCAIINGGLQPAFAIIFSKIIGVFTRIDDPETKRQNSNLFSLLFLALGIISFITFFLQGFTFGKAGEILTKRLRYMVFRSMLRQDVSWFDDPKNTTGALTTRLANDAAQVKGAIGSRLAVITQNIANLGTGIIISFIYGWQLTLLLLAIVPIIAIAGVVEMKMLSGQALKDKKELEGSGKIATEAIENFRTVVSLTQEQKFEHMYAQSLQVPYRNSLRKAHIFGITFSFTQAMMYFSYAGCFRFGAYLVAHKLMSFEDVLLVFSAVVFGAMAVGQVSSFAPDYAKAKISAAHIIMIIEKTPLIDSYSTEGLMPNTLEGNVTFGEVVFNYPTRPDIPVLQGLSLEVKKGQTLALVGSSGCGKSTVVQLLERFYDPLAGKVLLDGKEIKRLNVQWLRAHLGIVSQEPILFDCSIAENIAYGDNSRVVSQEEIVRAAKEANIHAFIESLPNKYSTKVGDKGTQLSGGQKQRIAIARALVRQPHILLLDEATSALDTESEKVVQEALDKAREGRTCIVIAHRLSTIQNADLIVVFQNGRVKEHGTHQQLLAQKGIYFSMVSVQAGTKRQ
ErbB2 WT, sequence (P04626 23-1255): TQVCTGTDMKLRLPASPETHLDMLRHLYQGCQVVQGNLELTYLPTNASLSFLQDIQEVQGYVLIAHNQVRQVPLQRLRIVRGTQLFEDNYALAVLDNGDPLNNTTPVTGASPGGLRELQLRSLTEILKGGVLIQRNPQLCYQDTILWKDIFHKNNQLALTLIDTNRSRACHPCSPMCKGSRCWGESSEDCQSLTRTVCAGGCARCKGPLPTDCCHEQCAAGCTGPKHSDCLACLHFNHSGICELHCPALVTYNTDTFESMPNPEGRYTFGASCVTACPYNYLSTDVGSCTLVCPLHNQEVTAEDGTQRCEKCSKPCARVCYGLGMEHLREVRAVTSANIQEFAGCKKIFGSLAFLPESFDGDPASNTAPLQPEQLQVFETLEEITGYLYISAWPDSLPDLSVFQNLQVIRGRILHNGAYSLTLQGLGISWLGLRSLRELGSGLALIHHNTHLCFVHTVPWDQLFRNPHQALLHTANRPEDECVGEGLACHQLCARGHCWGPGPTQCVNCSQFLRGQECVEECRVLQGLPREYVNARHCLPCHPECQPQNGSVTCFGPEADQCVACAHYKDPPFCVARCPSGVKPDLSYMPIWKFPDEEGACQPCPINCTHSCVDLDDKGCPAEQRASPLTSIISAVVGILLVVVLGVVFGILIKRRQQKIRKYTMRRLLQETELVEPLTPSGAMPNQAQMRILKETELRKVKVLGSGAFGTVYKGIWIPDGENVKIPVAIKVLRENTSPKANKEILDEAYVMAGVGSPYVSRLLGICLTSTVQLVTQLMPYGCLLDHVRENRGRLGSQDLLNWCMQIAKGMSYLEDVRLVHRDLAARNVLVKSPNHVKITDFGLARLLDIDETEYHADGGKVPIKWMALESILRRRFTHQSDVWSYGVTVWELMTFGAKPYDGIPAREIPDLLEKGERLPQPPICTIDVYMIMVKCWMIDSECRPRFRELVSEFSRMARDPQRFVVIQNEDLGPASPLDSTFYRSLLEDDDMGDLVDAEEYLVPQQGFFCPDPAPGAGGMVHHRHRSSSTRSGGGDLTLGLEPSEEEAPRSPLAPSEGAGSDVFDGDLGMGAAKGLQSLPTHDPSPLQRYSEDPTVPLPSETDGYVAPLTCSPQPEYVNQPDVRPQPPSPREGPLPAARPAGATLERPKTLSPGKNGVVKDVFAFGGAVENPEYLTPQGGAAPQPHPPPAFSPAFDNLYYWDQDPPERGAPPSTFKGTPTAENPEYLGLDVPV

By IC50 is commonly meant the midpoint of a concentration-inhibition curve. Higher therefore signals lower potency. With `C=CC(=O)N1CC[C@H]2C[C@H](c3ccc4ncnc(Nc5cc(C)c(Oc6ccn7ncnc7c6)cc5F)c4n3)C[C@H]21` (racemic) [Example 205, rac-1-((3aR,5S,6aR)-5-(4-((4-([1,2,4]triazolo[1,5-a]pyridin-7-yloxy)-2-fluoro-5-methylphenyl)amino)pyrido[3,2-d]pyrimidin-6-yl)hexahydrocyclopenta[b]pyrrol-1(2H)-yl)prop-2-en-1-one], the IC50 in data set [1] (ErbB2 WT enzyme) was 58.7 nM; in data set [2] (EGFR enzyme), 2420 nM; in data set [3] (ErbB2 YVMA phosphorylation), 24 nM; in data set [4] (setting [7]), 2560 nM. Also, the efflux ratio at 2 h, 1 µM stood at 4.5 in data set [5] and 1.2 in data set [6].
`C=CC(=O)N1[C@@H]2CC[C@H]1[C@H](c1ccc3ncnc(Nc4ccc(Oc5ccn6ncnc6c5)c(C)c4F)c3n1)C2` (racemic) [Example 213, rac-1-((1 S,2R,4R)-2-(4-((4-([1,2,4]triazolo[1,5-a]pyridin-7-yloxy)-2-fluoro-3-methylphenyl)amino)pyrido[3,2-d]pyrimidin-6-yl)-7-azabicyclo[2.2.1]heptan-7-yl)prop-2-en-1-one]: the IC50 in data set [1] (ErbB2 WT enzyme) was 7.3 nM; in data set [2] (EGFR enzyme), 264 nM; in data set [3] (ErbB2 YVMA phosphorylation), 23.9 nM; in data set [4] (setting [7]) it was not below 5000 nM. Also, the results for the efflux ratio at 2 h, 1 µM in data set [5] and in data set [6] were 3.4 and 1.5, respectively.
Take `C=CC(=O)N1C[C@H]2CC[C@@H]1C[C@@H]2c1ccc2ncnc(Nc3ccc(Oc4ccn5ncnc5c4)c(C)c3F)c2n1` (racemic) [Example 217, rac-1-((1R,4S,5S)-5-(4-((4-([1,2,4]triazolo[1,5-a]pyridin-7-yloxy)-2-fluoro-3-methylphenyl)amino)pyrido[3,2-d]pyrimidin-6-yl)-2-azabicyclo[2.2.2]octan-2-yl)prop-2-en-1-one]: the 50% inhibitory concentration (IC50) in data set [1] (ErbB2 WT enzyme) was 18.8 nM; in data set [2] (EGFR enzyme), 1460 nM; in data set [3] (ErbB2 YVMA phosphorylation), 11.1 nM; in data set [4] (setting [7]), 1850 nM. Further, the figures for the efflux ratio at 2 h, 1 µM in data set [5] and in data set [6] were 1.9 and 0.8, respectively.
With `C=CC(=O)N1C[C@H]2CC[C@@H]1C[C@H]2c1ccc2ncnc(Nc3ccc(Oc4ccn5ncnc5c4)c(C)c3F)c2n1` (racemic) [Example 218, rac-1-((1R,4S,5R)-5-(4-((4-([1,2,4]triazolo[1,5-a]pyridin-7-yloxy)-2-fluoro-3-methylphenyl)amino)pyrido[3,2-d]pyrimidin-6-yl)-2-azabicyclo[2.2.2]octan-2-yl)prop-2-en-1-one], the IC50 in data set [1] (ErbB2 WT enzyme) was 24.4 nM; in data set [2] (EGFR enzyme) it was 1420 nM; in data set [3] (ErbB2 YVMA phosphorylation), 32.7 nM; in data set [4] (setting [7]), not below 5000 nM. Moreover, the results for the efflux ratio at 2 h, 1 µM in data set [5] and in data set [6] were 2.6 and 1.4, respectively.
As to `C=CC(=O)N1[C@@H]2CC[C@H]1[C@H](c1ccc3ncnc(Nc4ccc(Oc5ccn6ncnc6c5)c(C)c4)c3n1)C2` (racemic) [Example 220, rac-1-((1 S,2R,4R)-2-(4-((4-([1,2,4]triazolo[1,5-a]pyridin-7-yloxy)-3-methylphenyl)amino)pyrido[3,2-d]pyrimidin-6-yl)-7-azabicyclo[2.2.1]heptan-7-yl)prop-2-en-1-one], the IC50 in data set [1] (ErbB2 WT enzyme) was 17.9 nM; in data set [2] (EGFR enzyme) it was 412 nM; in data set [3] (ErbB2 YVMA phosphorylation), 18.5 nM; in data set [4] (setting [7]), not below 5000 nM. Besides, the efflux ratio at 2 h, 1 µM is 2.2 in data set [5] and 1.3 in data set [6].
Turning to `C=CC(=O)N1C[C@H](c2ccc3ncnc(Nc4ccc(Oc5ccn6ncnc6c5)c(C)c4F)c3n2)C[C@@H]1C1CC1` (racemic) [Example 302], the IC50 in data set [1] (ErbB2 WT enzyme assay) is 8.2 nM; in data set [2] (EGFR enzyme assay), 712 nM; in data set [3] (cellular ErbB2 YVMA phosphorylation), 17.4 nM; in data set [4] (cellular EGFR WT phosphorylation, EGF-stimulated), 1450 nM. In addition, the values for the efflux ratio at 2 h, 1 µM in data set [5] and in data set [6] were 3.5 and 1.3, respectively.
Regarding `C=CC(=O)N1CC[C@@H](c2ccc3ncnc(Nc4ccc(Oc5ccn6ncnc6c5)c(C)c4F)c3n2)CC12CC2` (single isomer, unassigned) [Example 173], the IC50 is 105 nM in data set [1] (ErbB2 WT enzyme), not below 10000 nM in data set [2] (EGFR enzyme), 21 nM in data set [3] (ErbB2 YVMA phosphorylation) and 2310 nM in data set [4] (setting [7]). For the same compound, the results for the efflux ratio at 2 h, 1 µM in data set [5] and in data set [6] were 3 and 0.7, respectively.
In the case of `C=CC(=O)N1CC[C@@H]2C[C@H](c3ccc4ncnc(Nc5cc(C)c(Oc6ccn7ncnc7c6)cc5F)c4n3)C[C@@H]21` (single isomer, unassigned) [Example 225], the IC50 in data set [1] (ErbB2 WT enzyme) was determined as 26.5 nM; in data set [2] (EGFR enzyme), 422 nM; in data set [3] (ErbB2 YVMA phosphorylation), 8.4 nM; in data set [4] (setting [7]), 768 nM. Besides, the efflux ratio at 2 h, 1 µM in data set [5] was found to be 2; in data set [6], 1.2.
Turning to `C=CC(=O)N1[C@@H]2CC[C@H]1[C@H](c1ccc3ncnc(Nc4ccc(Oc5ccn6ncnc6c5)c(C)c4F)c3n1)C2` (single isomer, unassigned) [Example 228], the IC50 in data set [1] (ErbB2 WT enzyme) is 130 nM; in data set [2] (EGFR enzyme) it was 4550 nM; in data set [3] (ErbB2 YVMA phosphorylation) it was 33.6 nM; in data set [4] (setting [7]), not below 5000 nM. Besides, the efflux ratio at 2 h, 1 µM in data set [5] worked out at 3.3; in data set [6], 0.8.
As to `C=CC(=O)N1[C@H]2CC[C@@H]1[C@@H](c1ccc3ncnc(Nc4ccc(Oc5ccn6ncnc6c5)c(C)c4F)c3n1)C2` (single isomer, unassigned) [Example 229], the IC50 in data set [1] (ErbB2 WT enzyme) was 16.7 nM; in data set [2] (EGFR enzyme), 380 nM; in data set [3] (ErbB2 YVMA phosphorylation), 29.9 nM; in data set [4] (setting [7]), not below 5000 nM. Also, the values for the efflux ratio at 2 h, 1 µM in data set [5] and in data set [6] were 3 and 0.7, respectively.
For the compound `C=CC(=O)N1[C@@H]2CC[C@H]1C(c1ccc3ncnc(Nc4ccc(Oc5ccn6ncnc6c5)c(C)c4)c3n1)C2` (single isomer, unassigned) [Example 232], the 50% inhibitory concentration (IC50) was 10.5 nM in data set [1] (ErbB2 WT enzyme), 203 nM in data set [2] (EGFR enzyme), 31.9 nM in data set [3] (ErbB2 YVMA phosphorylation) and not below 5000 nM in data set [4] (setting [7]). Further, the results for the efflux ratio at 2 h, 1 µM in data set [5] and in data set [6] were 2.6 and 0.8, respectively.
For the compound `C=CC(=O)N1CCC(Oc2ccc3ncnc(Nc4ccc(Oc5ccn6ncnc6c5)c(C)c4)c3n2)CC1` [Example 1, 1-(4-((4-((4-([1,2,4]triazolo[1,5-a]pyridin-7-yloxy)-3-methylphenyl)amino)pyrido[3,2-d]pyrimidin-6-yl)oxy)piperidin-1-yl)prop-2-en-1-one], the IC50 was determined as 33.6 nM in data set [1] (ErbB2 WT enzyme), 4430 nM in data set [2] (EGFR enzyme), 12.5 nM in data set [3] (ErbB2 YVMA phosphorylation) and 1010 nM in data set [4] (setting [7]). Besides, the efflux ratio at 2 h, 1 µM was found to be 7.3 in data set [5] and 11.4 in data set [6].
Regarding `C=CC(=O)N1CCC(Oc2ccc3ncnc(Nc4ccc(Oc5ccc6cn(C)nc6c5)c(C)c4)c3n2)CC1` [Example 3, 1-(4-((4-((3-methyl-4-((2-methyl-2H-indazol-6-yl)oxy)phenyl)amino)pyrido[3,2-d]pyrimidin-6-yl)oxy)piperidin-1-yl)prop-2-en-1-one], the concentration for half-maximal inhibition (IC50) in data set [1] (ErbB2 WT enzyme) is 260 nM; in data set [2] (EGFR enzyme) it was not below 10000 nM; in data set [3] (ErbB2 YVMA phosphorylation), 60.6 nM; in data set [4] (setting [7]) it was not below 5000 nM. Further, the efflux ratio at 2 h, 1 µM turned out to be 1.5 in data set [5] and 2 in data set [6].
As for `C=CC(=O)N1CCC(Oc2ccc3ncnc(Nc4ccc(Oc5ccc6cn(C)nc6c5)c(C)c4F)c3n2)CC1` [Example 6, 1-(4-((4-((2-fluoro-3-methyl-4-((2-methyl-2H-indazol-6-yl)oxy)phenyl)amino)pyrido[3,2-d]pyrimidin-6-yl)oxy)piperidin-1-yl)prop-2-en-1-one], the IC50 is 3300 nM in data set [1] (ErbB2 WT enzyme), not below 10000 nM in data set [2] (EGFR enzyme), 54.2 nM in data set [3] (ErbB2 YVMA phosphorylation) and 2920 nM in data set [4] (setting [7]). In addition, the efflux ratio at 2 h, 1 µM in data set [5] amounted to 2.5; in data set [6], 1.3.
In the case of `C=CC(=O)N1CCC(Oc2ccc3ncnc(Nc4ccc(Oc5ccc6cn(C)nc6c5)c(Cl)c4F)c3n2)CC1` [Example 9, 1-(4-((4-((3-chloro-2-fluoro-4-((2-methyl-2H-indazol-6-yl)oxy)phenyl)amino)pyrido[3,2-d]pyrimidin-6-yl)oxy)piperidin-1-yl)prop-2-en-1-one], the IC50 was 977 nM in data set [1] (ErbB2 WT enzyme), not below 10000 nM in data set [2] (EGFR enzyme), 66 nM in data set [3] (ErbB2 YVMA phosphorylation) and 840 nM in data set [4] (setting [7]). For the same compound, the efflux ratio at 2 h, 1 µM stood at 2.4 in data set [5] and 1.7 in data set [6].
In the case of `C=CC(=O)N1CCC(Oc2ccc3ncnc(Nc4ccc(Oc5ccn6ncnc6c5)c(Cl)c4F)c3n2)CC1` [Example 13, 1-(4-((4-((4-([1,2,4]triazolo[1,5-a]pyridin-7-yloxy)-3-chloro-2-fluorophenyl)amino)pyrido[3,2-d]pyrimidin-6-yl)oxy)piperidin-1-yl)prop-2-en-1-one], the IC50 turned out to be 8.4 nM in data set [1] (ErbB2 WT enzyme), 220 nM in data set [2] (EGFR enzyme), 4 nM in data set [3] (ErbB2 YVMA phosphorylation) and 104 nM in data set [4] (setting [7]). The efflux ratio at 2 h, 1 µM in data set [5] was found to be 1.4; in data set [6], 1.2.
